This is an account of results in patent US8304401B2, “Compositions and methods for decreasing type III deiodinase activity to modulate adiposity and blood glucose levels” (Trustees of Dartmouth College, priority 2008, dated 2012).

In assay [1] the target is T1, D1 (Homo sapiens, UniProt P49895).
T1 sequence (P49895 1-249): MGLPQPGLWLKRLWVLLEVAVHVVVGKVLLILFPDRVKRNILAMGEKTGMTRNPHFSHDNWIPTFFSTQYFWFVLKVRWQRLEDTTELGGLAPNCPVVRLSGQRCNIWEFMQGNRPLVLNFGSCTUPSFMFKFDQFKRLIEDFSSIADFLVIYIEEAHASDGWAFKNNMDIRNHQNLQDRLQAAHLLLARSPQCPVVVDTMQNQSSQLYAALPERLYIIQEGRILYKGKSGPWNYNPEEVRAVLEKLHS
The experiment in a line: Inhibition of D1-catalyzed rT3 deiodination. The conditions noted are these: D1 much more sensitive to inhibition than D3. It counts as biochemical. The text has this:
In addition to those specifically disclosed herein, additional D3 inhibitors can be identified by the generation of analogs or derivatives of known inhibitors, which can be used as lead compounds. […] Based upon such differences, lead compounds can be generated that have excellent specificity for specific deiodinases.

The target in assay [2] is T1, D1. The conditions noted are these: competitive inhibitor; read-out: Ki, D1-catalyzed rT3 deiodination; cited from earlier work.
Assay [3] addresses T2, D3 (Homo sapiens, UniProt P55073).
T2 sequence (P55073 1-304): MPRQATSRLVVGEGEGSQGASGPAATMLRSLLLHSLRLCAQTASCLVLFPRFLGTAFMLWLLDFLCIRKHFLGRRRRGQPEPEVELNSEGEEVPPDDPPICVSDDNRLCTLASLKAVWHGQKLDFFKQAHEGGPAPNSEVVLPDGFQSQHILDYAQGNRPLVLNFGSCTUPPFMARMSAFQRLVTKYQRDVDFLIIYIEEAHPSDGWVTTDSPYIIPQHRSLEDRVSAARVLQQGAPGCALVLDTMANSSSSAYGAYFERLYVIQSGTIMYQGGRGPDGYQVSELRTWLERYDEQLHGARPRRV
Particulars: read-out: Ki, D3-catalyzed T3 5 deiodination; competitive inhibitor; cited from earlier work.

Assay [4] concerns D3. The conditions noted are these: cited from earlier work.
Assay [5] in a line: Wild-type mice made hypothyroid with perchlorate, epididymal fat pad weight. The conditions noted are these: 0.04% perchlorate for two months, relative weight of epididymal fat pad, P<0.01. It counts as in vivo, mouse. The text has this:
Analysis of relative weights (compared to total body weight) of male epididymal (EPI) and female parametrial white adipose tissue (WAT) indicated a significant reduction in adult D3KO mice (20% reduction in males and 35% in females, P<0.001, see FIG. 1). This reduction was more marked in aged D3KO mice (60%, P<0.001). […] These alterations were not due to the moderate hypothyroidism present in the D3KO mouse, as wild-type mice made hypothyroid with 0.04% perchlorate to a degree similar to that in D3KO mice manifested a 15% increase in EPI WAT weight (P<0.01, FIG. 3). Thus, the decreased adiposity of the D3KO mouse is both unexpected and even more striking in degree.

Usually Ki stands for a dissociation constant, usually derived from enzyme kinetics or from competition with a known ligand. For the compound `OC[C@@H](O)[C@@H](O)[C@H](O)[C@@H](O)C=S.[Au]` [gold thioglucose], the “difference in Ki between D1 and D3 inhibition” value on D1 [1] was “approximately 1000 fold”. Also, the inhibition constant (Ki) on D1 [2] was 6 nM; at D3 [3], 5200 nM.

As to `O=C(O)CI` [iodoacetate], in the assay on D3 [4], the D3 inhibitory activity entry is “exhibits D3 inhibitory activity”.

For the compound `CCC(Cc1c(I)cc(I)c(N)c1I)C(=O)O` (stereo not drawn) [iopanoic acid], the D3 inhibitory activity result in the assay with D3 [4] is reported as “effectively inhibit D3 activity”.

In the case of `[O-][Cl+3]([O-])([O-])O` [perchlorate], the “increase in EPI WAT weight” value in assay [5] was 15%.
